These results are taken from patent US9718812B2, “Substituted thiazole or oxazole P2X7 receptor antagonists” (Axxam S.P.A., priority 2014, dated 2017).

Molecules are shown by their SMILES.

Holding throughout (type): cell-based
Experiment [1] concerns the target T1, P2X7 receptor (Homo sapiens (Human), UniProt Q99572). Nature of the experiment: YO-PRO-1 Uptake Assay (large pore form, Bz-ATP stimulated). To be noted: HEK-293 cells stably transfected with P2X7 receptor; Bz-ATP EC80 (30 μM); 5 μM YO-PRO-1. An outline of the steps:
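IC50 values derive from percent inhibition versus A438079, using large-pore YO-PRO-1 (5 μM) entry into P2X7-transfected HEK-293 cells. Buffer held 0.3 mM Ca2+ and no Mg2+; after 5 min with test compound, cells were challenged with Bz-ATP at EC80 (30 μM, 3× concentration) and fluorescence recorded 60 min.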

The target in a further experiment is P2X7 receptor (hP2X7) (Homo sapiens (Human), UniProt Q99572). Nature of the experiment: Screen Quest Fluo-8 No Wash Calcium Assay (Bz-ATP-induced Ca2+ influx, FLIPR TETRA). To be noted: HEK-293 cells stably transfected with P2X7 receptor, Fluo-8 calcium, Low Divalent Cation Assay Buffer. In outline:
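Read-out is Fluo-8 NW fluorescence recorded over a 5-min kinetic window, reporting Bz-ATP-evoked Ca2+ entry. Cells: HEK-293 stably expressing the P2X7 receptor, dye-loaded for 1 h at room temperature before compound injection.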

Experiment [2] addresses T1, P2X7 receptor. Nature of the experiment: human P2X7 channel assay by automated patch-clamp (QPatch 16X). Particulars: HEK-293 cells expressing P2X7 channels, 100 microM BzATP, held at -80 mV, read-out: hP2X7 (IC50; nM). How it is done:
In order to directly monitor the block of P2X7 channel, an electrophysiological assay was developed and implemented on the QPatch 16X automated electrophysiology instrument.
HEK-293 cells expressing the P2X7 channels were cultured in modified EMEM.
72 hours before experiment, 5 million cells were seeded onto T225 flasks. Just before the experiment cells were washed twice, detached from the flask with trypsin-EDTA, re-suspended in the suspension solution and placed on the QPatch 16x.
The compounds (20 mM in a 100% DMSO) stored at −20° C. were prepared the day of the experiment (a first dilution 1:20 in 100% DMSO to prepare a 1 mM stock solution, then a 1 microM solution in external solution+a serial dilution 1:10).
The standard whole-cell voltage clamp experiments were performed at room temperature. For these experiments the multihole technology was used and the data were sampled at 2 KHz.
The intracellular solution contained (mM) 135 CsF, 10 NaCl, 1 EGTA, 10 HEPES, (pH 7.2 with CsOH) whereas the extracellular contained (mM) 145 NaCl, 4 KCl, 0.5 MgCl2, 1 CaCl2, 10 HEPES, 10 Glc (pH 7.4 with NaOH).
After establishment of the seal and the passage in the whole cell configuration, the cells were held at −80 mV. The P2XR7 current was evoked by applying 100 microM of BzATP alone (4 times) and then in the presence increasing concentrations of the compound under investigation (1, 10, 100 and 1000 nM).
The pre-incubation periods 5 to 8 contain increasing concentrations of the compound of interest (1, 10, 100 and 1000 nM), as illustrated in Figure (application protocol).
The maximal inward current evoked by BzATP in absence or presence of increasing concentrations of the compounds under investigation was measured and normalized.
Y: normalized response, 100% down to 0%, decreasing as X increases.
Log IC50: same log units as X
HillSlope: slope factor or HS, unitless

P2X7 receptor (hP2X7), sequence (Q99572 whole entry): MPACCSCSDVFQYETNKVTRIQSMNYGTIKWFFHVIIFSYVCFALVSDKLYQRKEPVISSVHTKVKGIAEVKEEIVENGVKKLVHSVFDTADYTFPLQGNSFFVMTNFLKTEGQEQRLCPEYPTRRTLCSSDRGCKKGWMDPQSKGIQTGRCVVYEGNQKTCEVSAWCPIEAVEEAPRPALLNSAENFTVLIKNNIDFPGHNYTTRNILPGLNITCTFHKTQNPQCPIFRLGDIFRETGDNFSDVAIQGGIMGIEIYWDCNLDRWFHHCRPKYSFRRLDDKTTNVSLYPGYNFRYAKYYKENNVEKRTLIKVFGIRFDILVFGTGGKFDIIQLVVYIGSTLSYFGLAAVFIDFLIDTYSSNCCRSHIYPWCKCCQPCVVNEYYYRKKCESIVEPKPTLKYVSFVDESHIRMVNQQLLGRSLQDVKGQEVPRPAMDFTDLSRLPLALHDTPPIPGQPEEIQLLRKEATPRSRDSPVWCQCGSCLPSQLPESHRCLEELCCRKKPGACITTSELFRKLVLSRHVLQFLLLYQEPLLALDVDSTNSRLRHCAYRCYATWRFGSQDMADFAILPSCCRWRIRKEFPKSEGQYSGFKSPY
T1 sequence (Q99572 whole entry): as above

For the compound `Cc1ncc(C(CNC(=O)c2cc(-c3ncc(F)cn3)ccc2Cl)N2CCC(F)(F)CC2)s1` (racemic) [Compound 61, 2-chloro-N-[2-(4,4-difluoropiperidin-1-yl)-2-(2-methyl-1,3-thiazol-5-yl)ethyl]-5-(5-fluoropyrimidin-2-yl)benzamide], the 50% inhibitory concentration (IC50) came out at 124 nM against P2X7 receptor [1], 280 nM on P2X7 receptor (hP2X7) and 56.3 nM at P2X7 receptor [2].

Turning to `Cc1ncc(C(CNC(=O)c2c(C)cccc2Cl)N2CCC(F)(F)CC2)s1` (stereo not drawn) [Compound 39, 2-chloro-N-[2-(4,4-difluoropiperidin-1-yl)-2-(2-methyl-1,3-thiazol-5-yl)ethyl]-6-methylbenzamide], the IC50 at P2X7 receptor [1] worked out at 18 nM; at P2X7 receptor (hP2X7) it was 28 nM; at P2X7 receptor [2], 61.9 nM.

For the compound `Cc1cccc(C)c1C(=O)NCC(c1cncs1)N1CCC(F)(F)CC1` (stereo not drawn) [Compound 14, N-[2-(4,4-difluoropiperidin-1-yl)-2-(1,3-thiazol-5-yl)ethyl]-2,6-dimethylbenzamide], the IC50 on P2X7 receptor [1] was found to be 24 nM; on P2X7 receptor (hP2X7) it was 27 nM; at P2X7 receptor [2] it was 22.7 nM.

Take `Cc1ncc(C(CNC(=O)c2cc(-c3ncc(F)cn3)ccc2Cl)N2CCC(F)(F)CC2)s1` (single isomer, unassigned; (+)) [Compound 127, (+)-2-chloro-N-[2-(4,4-difluoro-piperidin-1-yl)-2-(2-methylthiazol-5-yl)ethyl]-5-(5-fluoropyrimidin-2-yl)benzamide]: the figures for the concentration for half-maximal inhibition (IC50) at P2X7 receptor [1], on P2X7 receptor (hP2X7) and at P2X7 receptor [2] were 22 nM, 73 nM and 65.7 nM, respectively.

`Cc1ncsc1C(CNC(=O)c1cc(-c2ncc(F)cn2)ccc1F)N1CCC(F)(F)CC1` (stereo not drawn) [Compound 70, N-[2-(4,4-difluoropiperidin-1-yl)-2-(4-methyl-1,3-thiazol-5-yl)ethyl]-2-fluoro-5-(5-fluoropyrimidin-2-yl)benzamide]: the IC50 on P2X7 receptor [1] worked out at 183 nM; at P2X7 receptor (hP2X7), 32 nM; at P2X7 receptor [2], 58.4 nM.

As to `Cc1ncsc1C(CNC(=O)c1cc(-c2ncc(F)cn2)ccc1Cl)N1CCCC(F)(F)C1` (stereo not drawn) [Compound 66, 2-chloro-N-[2-(3,3-difluoropiperidin-1-yl)-2-(4-methyl-1,3-thiazol-5-yl)ethyl]-5-(5-fluoropyrimidin-2-yl)benzamide], the half-inhibitory concentration (IC50) was determined as 58 nM on P2X7 receptor [1], 22 nM on P2X7 receptor (hP2X7) and 82.5 nM at P2X7 receptor [2].

Take `O=C(NCC(c1cnco1)N1CCC(F)(F)CC1)c1cc(-c2ncc(F)cn2)ccc1Cl` (stereo not drawn) [Compound 47, 2-chloro-N-[2-(4,4-difluoropiperidin-1-yl)-2-(1,3-oxazol-5-yl)ethyl]-5-(5-fluoropyrimidin-2-yl)benzamide]: the concentration for half-maximal inhibition (IC50) against P2X7 receptor [1] stood at 36 nM; at P2X7 receptor (hP2X7), 43 nM; on P2X7 receptor [2] it was 33.9 nM.

On to `O=C(NCC(c1scnc1C(F)(F)F)N1CCC(F)(F)CC1)c1c(F)cccc1Cl` (stereo not drawn) [Compound 67, 2-chloro-N-[2-(4,4-difluoropiperidin-1-yl)-2-[4-(trifluoromethyl)-1,3-thiazol-5-yl]ethyl]-6-fluorobenzamide], for which the values for the IC50 against P2X7 receptor [1], at P2X7 receptor (hP2X7) and at P2X7 receptor [2] were 287 nM, 108 nM and 117 nM, respectively.

As for `Cc1ncsc1C(CNC(=O)c1c(F)cccc1Cl)N1CCC(OCc2ccccc2)CC1` (stereo not drawn) [Compound 59, N-{2-[4-(benzyloxy)piperidin-1-yl]-2-(4-methyl-1,3-thiazol-5-yl)ethyl}-2-chloro-6-fluorobenzamide], the results for the half-inhibitory concentration (IC50) at P2X7 receptor [1], at P2X7 receptor (hP2X7) and at P2X7 receptor [2] were 55 nM, 242 nM and 69.2 nM, respectively.
